The source made the active and inactive calls. No cut-off for these calls is given here.
Assays:
[1] = target: T1, E3 ubiquitin-protein ligase Mdm2 (Homo sapiens, UniProt Q00987); assay: Binding affinity to MDM2 (25 to 109 amino acids) (unknown origin) after 30 mins by surface plasmon resosnance analysis
Target sequence in this assay (Q00987 whole entry, the tested form may be a part): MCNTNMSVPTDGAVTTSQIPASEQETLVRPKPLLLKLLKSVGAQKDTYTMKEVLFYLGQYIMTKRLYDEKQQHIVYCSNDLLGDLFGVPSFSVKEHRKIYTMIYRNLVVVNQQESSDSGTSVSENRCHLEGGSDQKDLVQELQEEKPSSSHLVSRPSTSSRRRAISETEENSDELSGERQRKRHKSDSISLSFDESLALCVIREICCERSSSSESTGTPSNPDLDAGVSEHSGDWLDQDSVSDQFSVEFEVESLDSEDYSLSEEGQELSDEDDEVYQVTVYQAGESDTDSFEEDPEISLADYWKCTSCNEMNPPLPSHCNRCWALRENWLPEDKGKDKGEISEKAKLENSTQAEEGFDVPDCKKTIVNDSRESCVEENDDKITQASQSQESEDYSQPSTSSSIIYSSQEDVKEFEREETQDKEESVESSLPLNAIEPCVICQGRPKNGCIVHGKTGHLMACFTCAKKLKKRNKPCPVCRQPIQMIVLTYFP

[2] = target: T1, E3 ubiquitin-protein ligase Mdm2; assay: Binding affinity to MDM2 (25 to 109 amino acids) (unknown origin) at 100 uM after 30 mins by surface plasmon resosnance analysis
Target sequence in this assay (Q00987 whole entry, looked up, the tested form may be a part): as the sequence (Q00987 whole entry, the tested form may be a part) above

SMILES: CC(C)C[C@@H](NC(=O)[C@@H](CCC(N)=O)NC(=O)[C@H](N)Cc1cnc[nH]1)C(=O)N[C@@H]1CSSC[C@H]2NC(=O)[C@@H](CCCCN)NC(=O)[C@@H](C)NC(=O)[C@H]3CCCN3C(=O)[C@@H](CCC(=O)O)NC(=O)[C@@H]([C@H](C)O)NC(=O)[C@@H](Cc3ccccc3)NC(=O)[C@@H](CC(C)C)NC(=O)[C@@H](CSSC[C@H](C(=O)O)NC(=O)[C@@H](CC(N)=O)NC2=O)NC(=O)[C@@H](Cc2ccc(O)cc2)NC(=O)[C@@H](Cc2c[nH]c3ccccc23)NC(=O)[C@@H](CCCNC(=N)N)NC1=O
- Kd [1]: 18.1 µM

SMILES: CC(C)C[C@@H]1NC(=O)[C@@H]2CSSC[C@@H](C(=O)O)NC(=O)[C@H](CC(N)=O)NC(=O)[C@H](CSSC[C@H](NC(=O)[C@H](CC(C)C)NC(=O)[C@H](CCC(N)=O)NC(=O)[C@@H](N)Cc3cnc[nH]3)C(=O)N[C@@H](CCCNC(=N)N)C(=O)N[C@@H](Cc3c[nH]c4ccccc34)C(=O)N[C@@H](Cc3ccc(O)cc3)C(=O)N2)NC(=O)[C@H](CCCCN)NC(=O)[C@H](C)NC(=O)[C@@H]2CCCN2C(=O)[C@H](CCC(=O)O)NC(=O)[C@H]([C@@H](C)O)NC(=O)[C@H](Cc2ccccc2)NC1=O
- Activity [2]: inactive
